# Laboratory results from patent US20230172846A1, “ORAL DISSOLVABLE FILM AND METHOD OF MANUFACTURING AND USING THE SAME” (CURE PHARMACEUTICAL HOLDING CORP., priority 2019, published 2023).
# Legend:
# [1] = CBD film stability study (% assay of CBD); assay type: physicochemical
# pancreatic cancer = details: in vivo; cited from earlier work
# [2] = Vitamin D3 Oral Thin Film 4 weeks stability study (% assay); assay type: physicochemical; details: for % Assay of Vitamin D3: in oral thin film
# Description: Vitamin D3 is a highly sensitive Lipophilic active pharmaceutical ingredient (API). It was used as a model drug, formulated using above formulation and, Vitamin D3 Oral Thin Film tested for 4 weeks stability study.
compound,measurement,setting,value
"C=C(C)[C@@H]1CCC(C)=C[C@H]1c1c(O)cc(CCCCC)cc1O [CBD, Cannabidiol]",% Assay of CBD,"[1]; 25 C./60% RH, T0 Week",108%
same,% Assay of CBD,"[1]; 25 C./60% RH, T1 Month",109%
same,% Assay of CBD,"[1]; 25 C./60% RH, T2 Months",113%
same,% Assay of CBD,"[1]; 25 C./60% RH, T 2 Weeks",109%
same,% Assay of CBD,"[1]; 25 C./60% RH, T3 Months",120%
same,% Assay of CBD,"[1]; 40 C./75% RH, T1 Month",106%
same,% Assay of CBD,"[1]; 40 C./75% RH, T2 Months",113%
same,% Assay of CBD,"[1]; 40 C./75% RH, T 2 Weeks",108%
same,% Assay of CBD,"[1]; 40 C./75% RH, T3 Months",118%
same,% Assay of CBD,"[1]; 40 C./75% RH, T9 Months",96%
same,Stability and protection of the API in the film formulation,[1]; T=3M stability,better stability
same,% Assay of CBD,"[1]; in film formulation, 25 C./60% RH, T1 Month",109%
same,% Assay of CBD,"[1]; in film formulation, 25 C./60% RH, T2 Months",113%
same,% Assay of CBD,"[1]; in film formulation, 25 C./60% RH, T 2 Weeks",109%
same,% Assay of CBD,"[1]; in film formulation, 25 C./60% RH, T3 Months",120%
same,% Assay of CBD,"[1]; in film formulation, 40 C./75% RH, T1 Month",106%
same,% Assay of CBD,"[1]; in film formulation, 40 C./75% RH, T2 Months",113%
same,% Assay of CBD,"[1]; in film formulation, 40 C./75% RH, T 2 Weeks",108%
same,% Assay of CBD,"[1]; in film formulation, 40 C./75% RH, T3 Months",118%
same,% Assay of CBD,"[1]; in film formulation, T0 Week",108%
COc1cc(-c2cc(=O)c3c(O)cc(O)c(CC=C(C)C)c3o2)ccc1O [FBL-03G],Survival rate of subjects suffering from pancreatic cancer,pancreatic cancer,increase survival rate
C=C1CC[C@H](O)C/C1=C/C=C1\CCC[C@]2(C)[C@@H]([C@H](C)CCCC(C)C)CC[C@@H]12 [Vitamin D3],Protection and stability of Vitamin D3 in OTF,"[2]; 4 weeks stability study, high heat and humidity",significant protection
same,% Assay of Vitamin D3,"[2]; 25 C./60% RH, T 1 Week",95%
same,% Assay of Vitamin D3,"[2]; 25 C./60% RH, T2 Weeks",100%
same,% Assay of Vitamin D3,"[2]; 25 C./60% RH, T3 Weeks",101%
same,% Assay of Vitamin D3,"[2]; 25 C./60% RH, T4 Weeks",101%
same,% Assay of Vitamin D3,"[2]; 40 C./75% RH, T 1 Week",98%
same,% Assay of Vitamin D3,"[2]; 40 C./75% RH, T2 Weeks",92%
same,% Assay of Vitamin D3,"[2]; 40 C./75% RH, T3 Weeks",91%
same,% Assay of Vitamin D3,"[2]; 40 C./75% RH, T4 Weeks",93%
same,% Assay of Vitamin D3,[2]; T0 Week,100%
